Experimental data from US20090220429A1, “METHOD AND A SYSTEM FOR ASSESSING NEUROLOGICAL CONDITIONS” (METIS CURA EHF, priority 2005, published 2009).

Columns and labels:
[1] = tested on: early DAT subjects compared to controls; conditions: 1-3 min post-injection; no significant group difference at baseline; cited from earlier work
[2] = tested on: subjects with dementia of the Alzheimer's type (AD group) and healthy control group; assay: Clinical trial: EEG recorded before and after intravenous scopolamine as probe compound, feature pair classification of AD group versus control group; format: in vivo, human; conditions: for number of feature pair classifiers scoring 80% or better: features 33-48 (ratios before/after administration), P3-P4 montage, leave one out
Description: The effectiveness of the invention has been verified in a clinical trial. The participants in the trial were divided in two groups. One group consisted of 10 elderly subjects that have been diagnosed with, mild to moderate, dementia of the Alzheimer's type (AD group). A second age-matched group of 10 healthy individuals (i.e. non-AD individuals) was included as a control group.
The AD-group of participants consisted of patients in follow-up surveillance in the memory clinic at the Department of Geriatrics in Landspitali University Hospital, Reykjavik, Iceland. The group consisted of patients with Alzheimer's Disease (AD) (N=10) according to ICD-10. The other group consisted of normal Control participants (N=10), who were recruited from relatives of demented patients attending a day-care center.
To be eligible for participation in the study the subjects had to be in the range of 60-80 years of age, in good general health as determined by standard physical examination, with no acute changes on ECG. Exclusion criteria included smoking or any other use of tobacco (also excluding those that had stopped tobacco use about a week or less prior to the trial), treatment with neuroleptics and benzodiazepines, impaired liver- or kidney function, hypersensitivity to scopolamine, indication of drug, alcohol or medical abuse, glaucoma or possibility of raised intraocular pressure with administration of scopolamine. Prior to the screening visit the subjects were interviewed by phone. The AD subjects were selected from hospital records. All the AD patients in the follow-up program at the Memory Clinic were being treated with anti-dementia drugs. To minimize the variation between the subjects in the trial, the participants in the AD-group were selected from patients that were being treated with the same cholinesterase-inhibitor, Reminyl® (galantamine HBr).
Electroencephalographic neurophysiological signals were recorded from each of the subjects. The recording protocol was divided into two parts 105, 107 or sessions which were identical. In between the sessions the provided substance 101 substance scopolamine was administered intravenously, see FIG. 10. Within each section a two-minute period was recorded while the subject was instructed to be at rest with eyes closed. The data collected from these periods were used to estimate the individual features. The substance scopolamine was chosen based on its effects perturbing biophysical pathways that are known to deteriorate in subjects suffering from Alzheimer's disease. […]
The electroencephalographic signals were recorded using computerized measuring equipment, see FIG. 11. […]
These features were evaluated using a part of the first section where the subjects were at rest with eyes closed. […]

Row | SMILES | beta power response in the frontal region, early DAT subjects compared to controls [1] | classification performance ([2]; 3-NN scheme, FIG. 15, response feature set versus pre-administration feature set) | number of feature pair classifiers scoring 80% or better ([2]; 3-NN scheme, 4 with pre-administration features 1-16) | number of feature pair classifiers scoring 80% or better ([2]; SVM classification scheme, 5 with pre-administration features 1-16) | separation between the AD and control groups for a feature pair ([2]; ratio of feature values pre- and post-administration (FIG. 14) versus features before administration (FIG. 13))
1 | CCCC(C)C1(CC)C(=O)NC(=S)NC1=O (centres unmarked) [thiopental] | significantly smaller beta power response | – | – | – | –
2 | CN1[C@@H]2C[C@@H](OC(=O)[C@H](CO)c3ccccc3)C[C@H]1[C@@H]1O[C@@H]12 [scopolamine] | – | substantially enhanced classification performance | 29 | 23 | significantly better separation between the groups
